Laboratory results reported in PubChem BioAssay (NCI).
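These data come from cells grown in 96-well plates and exposed to compound for 48 hours at five concentrations. TGI denotes the concentration required for complete inhibition of growth.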

Experiments:
Assay in all cases: NCI-60 cell line screen, 48 h
OVCAR-4 ovarian = system: OVCAR-4 ovarian
HOP-92 NSCLC = system: HOP-92 NSCLC
SW-620 colon = system: SW-620 colon
K-562 leukemia = system: K-562 leukemia
SK-MEL-5 melanoma = system: SK-MEL-5 melanoma
SNB-19 CNS = system: SNB-19 CNS
HT29 colon = system: HT29 colon
COLO 205 colon = system: COLO 205 colon
UO-31 renal = system: UO-31 renal
BT-549 breast = system: BT-549 breast
OVCAR-8 ovarian = system: OVCAR-8 ovarian
SF-295 CNS = system: SF-295 CNS
SR leukemia = system: SR leukemia
SF-539 CNS = system: SF-539 CNS

| SMILES | TGI (OVCAR-4 ovarian) [µM] | TGI (HOP-92 NSCLC) [µM] | TGI (SW-620 colon) [µM] | TGI (K-562 leukemia) [µM] | TGI (SK-MEL-5 melanoma) [µM] | TGI (SNB-19 CNS) [µM] | TGI (HT29 colon) [µM] | TGI (COLO 205 colon) [µM] | TGI (UO-31 renal) [µM] | TGI (BT-549 breast) [µM] | TGI (OVCAR-8 ovarian) [µM] | TGI (SF-295 CNS) [µM] | TGI (SR leukemia) [µM] | TGI (SF-539 CNS) [µM] |
| --- | --- | --- | --- | --- | --- | --- | --- | --- | --- | --- | --- | --- | --- | --- |
| O=c1oc2ccccc2c(O)c1C(c1ccc(/C=C/c2ccccc2)cc1)c1c(O)c2ccccc2oc1=O | > 100 | 53.5 | > 100 | > 100 | 74.4 | > 100 | 37.2 | 71.8 | 41.1 | 56.2 | 43.8 | – | – | – |
| O=C1C(=O)c2ccccc2C(O)=C1CN(CCCl)CCCl | > 100 | > 100 | > 100 | > 100 | > 100 | > 100 | > 100 | – | > 100 | – | > 100 | > 100 | > 100 | > 100 |
| O=C(O)c1ccccc1C(=O)Nn1cnnc1 | > 100 | > 100 | > 100 | > 100 | > 100 | > 100 | > 100 | > 100 | > 100 | > 100 | > 100 | > 100 | – | > 100 |
| COC(=O)C1=C(\c2ccccc2)c2ccccc2C(=O)N(C2CCCCC2)/C=C\1 | > 100 | 95.2 | > 100 | > 100 | 24.3 | > 100 | > 100 | 28.8 | > 100 | 74.6 | > 100 | > 100 | – | 55.9 |
| CC12CCC(C(=O)N3CC=CCC3)(OC1=O)C2(C)C (centres undefined) | > 100 | > 100 | > 100 | > 100 | > 100 | > 100 | > 100 | > 100 | > 100 | – | > 100 | > 100 | – | > 100 |
| COc1cc(NP(=O)(Oc2ccccc2)Oc2ccccc2)ccc1Nc1c2ccccc2nc2c1[nH]c1ccccc12 | 15.3 | 3.8 | 12.9 | 6.71 | 10.3 | > 100 | 2.96 | > 43 | 16.6 | – | – | 13.1 | – | – |
| Cc1ccc(SCC(CF)OCn2cc(F)c(=O)[nH]c2=O)cc1 (centres undefined) | > 100 | > 100 | > 100 | > 100 | > 100 | > 100 | > 100 | – | > 100 | – | > 100 | > 100 | > 100 | > 100 |
| COc1cc(NCc2ccc3nc(OC)c(OC)nc3c2)cc(OC)c1OC | > 100 | > 100 | > 100 | > 100 | > 100 | > 100 | > 100 | > 100 | > 100 | – | > 100 | > 100 | > 100 | > 100 |
| [O-][n+]1onc(-c2ccccc2)c1CN1CCOCC1 | > 100 | > 100 | > 100 | > 100 | > 100 | > 100 | > 100 | > 100 | > 100 | > 100 | > 100 | > 100 | – | > 100 |
